# Laboratory results reported in PMC11885506, “Evaluation of a non-animal toolbox informed by adverse outcome pathways for human inhalation safety” (Frontiers in Toxicology, 2025).
# “Also recorded” adds a separate entry of the source. Where a name gives a salt, the structure may show the parent alone.
# Assays:
# NCI-H292 cells = settings: 0.03 µM for 4 h; ref Deshmukh et al., 2005; cited from earlier work
# [1] = test system: human bronchial epithelial cells (BEAS-2B); parameters: method as in Sthijns et al., 2014; settings: 3-10 µM, 30-min exposure; ref Sthijns et al., 2014; cited from earlier work
# [2] = test system: NCI-292 and normal human bronchial epithelial cells; parameters: method as in Deshmukh et al., 2005; settings: ref Deshmukh et al., 2005; cited from earlier work
# MucilAir™-HF tissues [3] = test: Mucin-5AC (Muc5AC) immunohistochemistry, goblet cells, MucilAir-HF model; format: cell-based, human; settings: 30 min/day exposure, average ± standard deviation
# Experimental: (§1) Tissues were handled as recommended by manufacturer’s instruction.
# The presence of goblet cells was assessed through immunohistochemistry analysis for mucin-5AC protein (Muc5AC) detection. IL-13 and cytomix were used as positive controls (see item 2.5.2 for additional details). On last day of experiment (day 12), cultures (n = 3 tissues/group) were rinsed in PBS and fixed by immersion in 4% formaldehyde for 20 min. Fixed tissues were embedded into paraffin, sectioned, and processed for staining on paraffin sections. The immunostaining of the sections was performed with the Benchmark automated platform (Ventana-Roche, Hoffmann-La Roche Ltd, Basel, Switzerland) and the Autostainer Link 48 (Agilent, Santa Clara, CA. United States) with the detection kit Ultraview DAB (DAB chromogeny, Hoffmann-La Roche Ltd). Sections were pre-treated using heat mediated antigen retrieval with sodium citrate buffer, pH 6, for 20 min. The section was then incubated with recombinant anti-mucin 5AC antibody (ab3649, Abcam) for 1 h at room temperature, followed by biotinylated secondary antibody (Dako) and HRP detection (HRP conjugated ABC system, Vector Laboratories), according to manufacturer’s instruction. The section was then counterstained with hematoxylin (Sigma-Aldrich) and mounted with DPX, a synthetic non-aqueous mounting medium for microscopy. Digital images of the slides were then acquired, and quantitative image analysis performed using Image Pro Plus 6.2 (Media Cybernetics) to quantify the goblet cells on a section. The whole images of stained sections were scanned, and an average 15 images/section were analysed. The results are the ratio between the mucin 5AC stained area and the total surface area of the epithelium on the section.
# EpiAlveolar™ tissues [4] = test: High-throughput transcriptomics (RNA-seq, PLIER latent variables), EpiAlveolar model, Laboratory 2; format: cell-based, human; settings: for MinPoD: Transcriptomics, biomarker 111
# EpiAlveolar™ tissues [5] = test: Cytokine and chemokine measurements (Luminex), EpiAlveolar model, Laboratory 1; format: cell-based, human; settings: for MinPoD: EpiAlveolar™ model Laboratory-1
# Description: (§2) EpiAlveolar™ system was obtained from MatTek Corporation (Ashland, MA, United States, cat. no. ALV-100-FT-MAC, ALV-100-FT-MAC-PE12). According to the supplier, the tissue systems were derived from primary human alveolar epithelial cells and primary pulmonary fibroblasts, both from a same healthy donor, and pulmonary endothelial cells from another healthy donor, and THP-1 cell line derived macrophages. These tissues were differentiated by the manufacturer prior to shipping to the testing facilities. […] TEER was measured and only systems with confirmed quality of the tight junction barrier (>300 Ω.cm^2) and with approved morphological inspection were used in the experiments.
# (§3) Vehicle control groups were also tested in parallel. Except for Doxorubicin (which underwent a 6-day chemical exposure + 6-day without exposure), exposures were conducted daily, on 12 consecutive days with different concentrations, through aerosol, apical or basolateral liquid exposure methods (Table 2). […] Each of the insert holders of the instrument base module was filled with Hanks’ Balanced Salt solution (HBSS) or PBS prior to placing the tissue inserts. Then, each test item solution/suspension was placed into the nebulizer reservoir for aerosol material exposure. The nebulizer was activated until the material solution/suspension was consumed and discharged into the main exposure chamber and allowed to fully gravity deposit out of the Cloud 12 (determined using a QCM). After exposure, the tissues were placed back into their multi-well culture plates containing the same medium, a further aliquot of media was added apically (20 µL for Akemi, 75 µL for all others except LPS) and returned to incubator until next exposure. Media used during the 6- or 12-day experimental period was prepared without Supplement X by MatTek. In medium exposure, the apical or basolateral liquid of each tissue was removed and replaced with each test item medium solution/suspension and returned to the incubator until the next exposure. After the beginning of the exposure cycles, tissues were only re-fed with new culture medium every 3-4 days.
# In Laboratory 1, basal media samples collected from the tissues were collected and stored at ≤ −60°C until analysis. For cytokine/chemokine measurements, 17-Plex, duplex and single-plex analyte detection panels were run on the samples using Human Luminex™ Multiplex Immunoassay kits (R&D Systems). The analytes quantified were TNF-α, IL-6, MMP-9, MMP-3, MMP-1, MMP-2, CXCL10, CCL2, IFN-γ, IL-1ra, CCL7, IL-1a, CCL26, CXCL9, VCAM-1, ICAM-1, and CXCL11 in a 17-plex assay; whereas IL-8 and Serpin E1 in a duplex assay and TGF-β1 in a single-plex assay.
# EpiAlveolar™ model = test: Bioactivity exposure ratio (BER): lowest in vitro PoD of EpiAlveolar readouts / lower respiratory tract exposure estimate or Cmax; parameters: species or system human; settings: Plasma
# Experimental: (§4) Concentration and time-dependent changes in the bioactivity readout data were analyzed using a nonlinear state space model, based on the work of [Svensson and Schön (2017)]. […] All bioactivity readouts were included in the analysis (where available), i.e., measurements for tissue integrity loss (TEER) and functionality (MCC, CBF, and mucin secretion), cytokine/chemokine secretion, and the transcriptional LV values obtained using PLIER. The datasets were grouped so that a single state space model was used to capture all the responses (across time, concentration, and test material) for a single readout obtained within a particular study (laboratory/tissue model). Data were transformed to the log base 10 scale and normalized using z-scores, so that for a given readout Ytij from a laboratory/tissue model, the corresponding normalized value was given by y^tij=⁡log⁡10(Ytij)−μ)/σ . Here, the indexes i,j,t correspond to the different test materials, concentrations and timepoints, μ and σ are the sample mean and standard deviation of the control readout values obtained for the first timepoint. All measurement were then scaled so that the maximum median value across different replicates was one for all timepoints, readouts and test materials within a given laboratory/tissue model.
# The model consists of state variables xti,j , response variables ytij and the concentrations of material c^i,j . The response variables yti,j represent the normalized (see below) readout values at timepoint t for material exposure i,j . The mean of the response variable is given by xti,j , so that yti,j∼xti,j+et , where et represents random fluctuations in the readout values, due to observational noise, which are taken to be normally distributed. Dynamical changes in state values are given by xti,j=fxt−1i,j,cti,j+vt . Here, fxt−1i,j,c^i,j is a non-linear function that represents interactions between different state variables and the perturbation caused by the test material at a given exposure at concentration c^i,j, and vt represents random fluctuations in state dynamics (which are also normally distributed). Following [Svensson and Schön (2017)], the nonlinear terms are based on an approximation to Gaussian processes, which are obtained using a basis function expansion-based approach. Inference of the model parameters was performed in the framework of Bayesian inference, wherein random draws of the posterior distribution were obtained using Sequential Monte Carlo (SMC), see [Svensson and Schön (2017)] and [Chopin and Papaspiliopoulos (2020)]. For each state space model representing a particular laboratory/readout dataset, SMC simulation was run for three chains at 5,000 iterations each, and first 1,000 iterations were discarded from the final posterior samples. The Rhat convergence diagnostic (Rhat < 1.1) was used to ensure the simulations had converged.
# The state space model and posterior model parameter samples were then used to construct posterior predictive distributions of the response of each readout to a given test material for a given concentration and timepoint (see Figure 4). The posterior predictive distributions were used to estimate various statistics on the readout responses (median, 95% credible range etc.), PoDs, Concentration Dependency Scores (CDS) and two Effect Scores (increase and decrease). PoDs were defined as the concentration at which the mean response to a test material exceeded the 95% credible range of control for each timepoint (otherwise the mean response remains within the range of control). PoDs distribution for each timepoint, test material and readout, from which different statistical measures (e.g., the median, 95% credible range etc.) were calculated. The CDS was designed to provide confidence metric in whether an effect in the data was truly concentration dependent.
# [6] = human, therapeutic dose, infusion of 60 mg/m^2 for 40 min; ref Barpe et al. (2010); cited from earlier work
# EpiAlveolar™ tissues [7] = test: Histology and immunohistochemistry, EpiAlveolar model, Laboratory 2; settings: Laboratory 2, 12-day period
# Experimental: To evaluate the quality of EpiAlveolar™ tissues over the 12-day experimental period, histological and immunohistochemistry assessments for detection of pan-cytokeratin, vimentin, aquaporin 5, pro-surfactant C, CD68, caspase-3, and/or αSMA were performed by Laboratories 1 and 2.
# Tissues were kept in 10% phosphate buffered formalin at 4°C for up to 48 h. Samples were then fixed in 70% ethanol and two strips of membrane were trimmed from each sample, processed, and paraffin-embedded to be cut at 5 µm thick sections and mounted to glass slides. The slides were then dewaxed in xylene, hydrated using graded industrial methylated spirit (70-100%) and stained with H&E for light microscope analysis.
# For immunohistochemistry analysis, tissue sections-containing microscope slides were obtained and processed using a Discovery Ultra Staining System (Roche), according to manufacturer’s instructions, except for anti-CD68 staining that was manually performed. The slides were incubated at 60°C for 8 min and then deparaffinized at 69°C for 24 min. After that, slides were incubated with inhibitor CM or peroxidase blocking solution (for anti-CD68 staining) for 8 min at room temperature. The slides were then incubated at room temperature with the following primary monoclonal antibodies, following manufacturer’s instructions: anti-α smooth muscle actin (αSMA) at 1:500 (Leica Microsystems Ltd), anti-CD68 at 1:3000 for macrophages (11192-T24, Sino Biological), anti-pro-surfactant C protein at 1:1000 (AB3786, Sigma-Aldrich), anti-caspase-3 at 1:10000 (AB4051, Abcam), anti-aquaporin 5 (31661, Invitrogen), anti-pan-cytokeratin for epithelial cells (760-2595, Roche), and anti-vimentin for mesenchymal cells (790-2917, Roche). […]
# A board-certified pathologist evaluated the changes (epithelial thinning, separation/detachment areas, necrosis, collagen, and presence of apoptotic cells, myofibroblasts, and type II pneumocytes) using a semi-quantitative scoring system (Table 2).
# [8] = cited from earlier work
# EpiAlveolar™ tissues [9] = test: Cytokine and chemokine measurements (Luminex), EpiAlveolar model, Laboratory 2; format: cell-based, human; settings: for MinPoD: EpiAlveolar™ model Laboratory-2
# Description: as §2, §3
# In Laboratory 2, apical culture media samples of the tissues were collected, stored at −80°C until shipment, in dry ice with temperature monitor control, to Unilever SERS, where the analyses were performed. Upon receipt, samples were again stored in the −80°C until the analysis using Human Luminex® Discovery Assay kits (R&D Systems). The same readouts investigated for MucilAir™-HF tissue samples were quantified in these samples.
# MucilAir™-HF tissues [10] = test: TEER analysis of tissue barrier integrity, MucilAir-HF model; settings: Day 4, biomarker TEER
# Experimental: (§5) The MucilAir™-HF system (EP11MD) and ready-to-use chemically-defined, serum-free culture medium (EP04AM) were obtained from Epithelix Sàrl (Geneva, Switzerland). Tissues were handled as recommended by manufacturer’s instruction. […] After differentiation for 42 up to 81 days at the air-liquid interface (ALI) under standard culture conditions (37°C ± 1°C in a humidified atmosphere of 5% ± 1% CO2 in air), tissues were washed 3 days before first exposure and each insert was inspected for beating cilia and mucus production. This washing step (one or twice with PBS) were performed to remove accumulated mucus and cell debris to minimize the risk of interference with the toxicity tests. Over 12-day experimental period, washing steps as well as media changes was performed every 2-3 days.
# (§6) For toxicity testing performed over a 12-day experimental period, tissues were daily exposed to 3 different concentrations of each test material for 30 min or 6 h (for detailed information on each material see Table 1). […]
# (§7) TEER measurements were performed daily after test item exposure to evaluate tissue barrier function. Tissues were washed, 200 µL of buffered saline solution was added to the apical compartment of MucilAir™-HF cultures, and resistance was measured using an EVOMX volt-ohmmeter with chopstick style probes (World Precision Instruments, Stevenage, UK). […]
# MucilAir™-HF tissues [11] = test system: MucilAir™-HF tissues
# Experimental: as §5, §6, §7
# MucilAir™-HF tissues [12] = test: Cytokine and chemokine measurements (Luminex), MucilAir-HF model; format: cell-based, human; settings: for Cytokines/chemokines modulated (in words): MucilAir-HF; for MinPoD: MucilAir™-HF model, biomarker IL-1ra
# Experimental: as §1
# Basolateral medium samples of the tissue cultures were collected and stored at −80°C until analysis. The following cytokines/chemokines were quantified using customized Human Luminex® Discovery Assay kits (R&D Systems): chemokine (C-C motif) ligand (CCL) 2, CCL7, CCL26, C-X-C motif chemokine ligand (CXCL) 10, CXCL11, intercellular adhesion molecule-1 (ICAM-1), IL-1α, IL-6, IL-8, matrix metalloproteinase (MMP)-1, MMP-2, MMP-3, MMP-7, MMP-9, osteopontin, interferon (IFN)-γ, IL-1 receptor antagonist (IL-1Ra), urokinase-type plasminogen activator receptor (uPAR), tumour necrosis factor (TNF)-α, urokinase (uPA), serpin E1, tissue inhibitor of metalloproteinase 1 (TIMP-1), and TGF-β1. Samples were measured in technical triplicates according to the manufacturer’s recommendation using a Luminex Bio-Plex® 200 RUO System ([…]).
# MucilAir™-HF tissues [13] = test system: MucilAir™-HF tissues; remark: listed apart in the source
# Experimental: as §5
# For toxicity testing performed over a 12-day experimental period, tissues were daily exposed to 3 different concentrations of each test material for 30 min or 6 h (for detailed information on each material see Table 1). […] Tissues were exposed by test materials via nebulization, liquid apical application, or liquid basal application. These differences in the exposure type were due to solubility of the test material, route of exposure (inhaled or systemic), or comparison with previous publications. […]
# [14] = test system: Beas2B, HFL-1 and H292 cells; parameters: method as in Gerloff et al., 2017; settings: 10 ng/mL for 24h; ref Gerloff et al., 2017; cited from earlier work
# [15] = test system: human airway smooth muscle cells; parameters: method as in McKay et al., 2000; settings: 1-500 U/mL for 24h; ref McKay et al., 2000; cited from earlier work
# [16] = day 12, High 1 concentration (third of the tested concentrations)
# [17] = day 12, Low concentration (first of the tested concentrations)
# [18] = day 12, Medium concentration (second of the tested concentrations)
# Experimental for MucilAir™-HF model: as §4
# The model consists of state variables xti,j , response variables ytij and the concentrations of material c^i,j . The response variables yti,j represent the normalized (see below) readout values at timepoint t for material exposure i,j . The mean of the response variable is given by xti,j , so that yti,j∼xti,j+et , where et represents random fluctuations in the readout values, due to observational noise, which are taken to be normally distributed. Dynamical changes in state values are given by xti,j=fxt−1i,j,cti,j+vt . […] For each state space model representing a particular laboratory/readout dataset, SMC simulation was run for three chains at 5,000 iterations each, and first 1,000 iterations were discarded from the final posterior samples. […]
compound,measurement,setting,value
C=CC=O [Acrolein],MUC5AC mRNA expression,NCI-H292 cells,MUC5AC mRNA expression increase
same,Cytotoxicity (LDH leakage),[1],concentration-dependent cytotoxicity through LDH leakage increase
same,MMP9 mRNA expression,[2],increase of MMP9 mRNA expression
same,% of Muc5AC area,MucilAir™-HF tissues [3]; [16],5.21 ± 2.16%
same,% of Muc5AC area,MucilAir™-HF tissues [3]; [17],3.66 ± 1.21%
same,% of Muc5AC area,MucilAir™-HF tissues [3]; [18],7.40 ± 1.45%
"COc1cccc2c1C(=O)c1c(O)c3c(c(O)c1C2=O)C[C@@](O)(C(=O)CO)C[C@@H]3O[C@H]1C[C@H](N)[C@H](O)[C@H](C)O1 [Doxorubicin, Doxorubicin hydrochloride]","Median change, 171 - INTRAFLAGELLAR_TRANSPORT",EpiAlveolar™ tissues [4],0.04
same,MinPoD,EpiAlveolar™ tissues [4]; Day 1,0.002879 μg/cm2
same,MinPoD,EpiAlveolar™ tissues [4]; Day 4,0.00076 μg/cm2
same,MinPoD,EpiAlveolar™ tissues [4]; Day 8,0.0007958 μg/cm2
same,MinPoD,EpiAlveolar™ tissues [4]; Day 12,0.000701 μg/cm2
same,Cytokines/chemokines modulated (in words),"EpiAlveolar™ tissues [5]; EpiAlveolar, Laboratory 1",tendency towards downregulation of the inflammatory and degradation of extracellular matrix/fibrosis responses; also recorded: dual effect with the anti-inflammatory IL-1ra response
same,MinPoD,"EpiAlveolar™ tissues [5]; Day 4, biomarker MMP-3",0.1566 μg/cm2
same,MinPoD,"EpiAlveolar™ tissues [5]; Day 8, biomarker MMP-3",0.1333 μg/cm2
same,MinPoD,"EpiAlveolar™ tissues [5]; Day 12, biomarker MMP-9",0.1298 μg/cm2
same,BER_min,"EpiAlveolar™ model; Day 1, EpiAlveolar™ model Laboratory-2",0.2187
same,BER_min,"EpiAlveolar™ model; Day 1, Transcriptomics",0.002215
same,BER_min,"EpiAlveolar™ model; Day 4, EpiAlveolar™ model Laboratory-1",0.1204
same,BER_min,"EpiAlveolar™ model; Day 4, EpiAlveolar™ model Laboratory-2",0.08579
same,BER_min,"EpiAlveolar™ model; Day 4, Transcriptomics",0.0005847
same,BER_min,"EpiAlveolar™ model; Day 8, EpiAlveolar™ model Laboratory-1",0.1025
same,BER_min,"EpiAlveolar™ model; Day 8, EpiAlveolar™ model Laboratory-2",0.05859
same,BER_min,"EpiAlveolar™ model; Day 8, Transcriptomics",0.0006121
same,BER_min,"EpiAlveolar™ model; Day 12, EpiAlveolar™ model Laboratory-1",0.09985
same,BER_min,"EpiAlveolar™ model; Day 12, EpiAlveolar™ model Laboratory-2",0.0528
same,BER_min,"EpiAlveolar™ model; Day 12, Transcriptomics",0.0005393
same,Plasma conc,[6],Plasma conc 1.3 μM
same,Histological changes compared to vehicle and control groups (in words),EpiAlveolar™ tissues [7],minor increase in epithelial thinning and a minor increase in the numbers of degenerate cells were observed by day 4
same,Risk,[8]; Scenario Plasma,High
same,Risk classification,"[8]; per benchmark chemical-exposure scenario (product and exposure scenario of the same line), based on historical safety decisions, ref References column of Table 3",High
same,Cytokines/chemokines modulated (in words),"EpiAlveolar™ tissues [9]; EpiAlveolar, Laboratory 2",tendency towards downregulation of the inflammatory and degradation of extracellular matrix/fibrosis responses
same,MinPoD,"EpiAlveolar™ tissues [9]; Day 1, biomarker CCL2",0.2843 μg/cm2
same,MinPoD,"EpiAlveolar™ tissues [9]; Day 4, biomarker CCL2",0.1115 μg/cm2
same,MinPoD,"EpiAlveolar™ tissues [9]; Day 8, biomarker CCL7",0.07617 μg/cm2
same,MinPoD,"EpiAlveolar™ tissues [9]; Day 12, biomarker CCL7",0.06864 μg/cm2
Benzalkonium chloride [BAC],MinPoD,MucilAir™-HF tissues [10],2.6 μg/cm2
same,% of Muc5AC area,MucilAir™-HF tissues [3]; [16],3.98 ± 1.12%
same,% of Muc5AC area,MucilAir™-HF tissues [3]; [17],5.75 ± 0.93%
same,% of Muc5AC area,MucilAir™-HF tissues [3]; [18],5.37 ± 1.06%
same,Tissue barrier integrity (TEER) change (in words),MucilAir™-HF tissues [11],trigger changes in tissue barrier integrity
same,Cytokines/chemokines modulated (in words),MucilAir™-HF tissues [12]; 30 min/day exposure,"increase in CCL7, IL-1α and IL-6; also recorded: downregulation of MMP-7 only"
same,Cytokines/chemokines modulated (in words),MucilAir™-HF tissues [12]; exposure time/day not given,IL-1ra showed upregulated levels
same,MinPoD,MucilAir™-HF tissues [12]; Day 8,1.822 μg/cm2
same,MinPoD,MucilAir™-HF tissues [12]; Day 12,1.409 μg/cm2
Carboxymethylcellulose sodium salt [CMC],BER_min,MucilAir™-HF model,2.393
same,MCC change (in words),MucilAir™-HF tissues [13],concentration-dependent reduction in the MCC only on day 1
Recombinant human TNF-α (carrier-free),IL-8 protein levels,[14],increased IL-8 protein levels
same,IL-6 production protein and mRNA transcript levels,[15],significant increase of IL-6 production protein and mRNA transcript levels
same,% of Muc5AC area,MucilAir™-HF tissues [3]; [16],5.21 ± 3.28%
same,% of Muc5AC area,MucilAir™-HF tissues [3]; [17],8.18 ± 1.54%
same,% of Muc5AC area,MucilAir™-HF tissues [3]; [18],9.15 ± 6.07%
same,Cytokines/chemokines modulated (in words),MucilAir™-HF tissues [12]; 30 min/day exposure,upregulation of CCL2 and osteopontin
